# Experimental data from US12042523B2, “Compositions and methods for managing or improving bone disorders, joint disorders, cartilage disorders, or a combination thereof” (Unigen, Inc., priority 2014, dated 2024).
# Marks after values point to notes of the source that are not given here.
# What was measured:
# Assay type in all cases: in vivo, rat
# [1] = tested on: MIA-induced osteoarthritis in Sprague-Dawley rats; experiment: Bone histomorphometry (Micro CT) in concurrent MIA-induced osteoarthritis model
# Procedure: Male Sprague-Dawley (SD) rats weighing 170˜230 g (6 weeks of age) were purchased and acclimated for one week. […] Anesthetized rats were injected with 0.8 mg of MIA in 50 μl saline solution into the intra-articular pocket at 1 hour after sample treatments. And then samples were administrated daily with gastric tube for 6 weeks. Bone histomorphometry was evaluated on both femur and tibia per knee joint by Micro CT scan using an Inveon™ unit (Siemens Healthcare USA, Inc., Pennsylvania, USA) at Korea Basic science institute, Ochang, Korea. BV/TV as an indicator of trabecular bone volume is the ratio of the trabecular bone volume to the total volume. BMD used as an indicator of osteoporosis and fracture risk. Therefore, we checked those markers whether GM has the efficacy on the osteoporosis. […] Anesthetized rats were injected with 0.8 mg of MIA in 50 μl saline solution into the intra-articular pocket at 1 hour after sample treatments. Samples were administrated daily with gastric tube for 6 weeks. Bone histomorphometry was evaluated on both femur and tibia per knee joint by Micro CT scan using an Inveon™ unit (Siemens Healthcare USA, Inc., Pennsylvania, USA) at Korea Basic science institute, Ochang, Korea. BV/TV as an indicator of trabecular bone volume is the ratio of the trabecular bone volume to the total volume. BMD used as an indicator of osteoporosis and fracture risk.
# [2] = tested on: MIA-induced osteoarthritis in Sprague-Dawley rats; experiment: Pain sensitivity (paw withdrawal / compression threshold, Randall-Salitto) in MIA-induced OA model; conditions: Diclofenac 10, UP1306 400, UP446 250, Composition 650 mg/kg; for Compression threshold (Mean ± SD): oral
# Procedure: Animals were provided with fresh water and rodent chow diet # T2018 (Harlan Teklad, 370W, Kent, WA, USA) ad libitum and were housed in a temperature-controlled room (22.2° C.) on a 12 h light-dark cycle.
# [3] = tested on: MIA-induced osteoarthritis in Sprague-Dawley rats; experiment: Histopathology of femorotibial joint, modified Mankin score, MIA-induced OA model
# Procedure: Treatment started a week before MIA injection. […] The standardized blends for each treatment groups are defined as UP446=1A:4S, UP1306=1A:2M and the composition at the given dosage=0.282A:0.308S:0.410M where “A”, “S” and “M” stands for acacia, scutellaria and moms, respectively. On the induction day, isoflurane (Lot #B66H15A, Piramal Enterprise Ltd. Andhra Pradesh, India) anesthetized rats were injected with 0.8 mg of MIA (Lot #A0352046, Acros Organics, New Jersey, USA) in 50 μL saline solution into the intra-articular pocket of left femorotibial (knee) joint using 26 G needle an hour after treatment. Normal control rats were injected with an equal volume of saline. […] Body weights were measured once a week to calculate the respective weekly dosage of each group. The merit of combining UP1306 and UP446 was then evaluated using the Colby's equation (Colby, 1967). Pain sensitivity percent inhibition values were used to determine the calculated efficacy values and compared to the observed percent inhibition values of the composition.
# At necropsy, animals were asphyxiated with CO2 and the femorotibial joint was carefully dissected out, fixed in 10% buffered formalin and sent to Nationwide Histology (Veradale, WA, USA) for further histopathology analysis. The fixed specimens were then decalcified with Calci-Clear Rapid for 1 and a half days and embedded in paraffin. Standardized 5 μm serial sections were obtained at the medial and lateral midcondylar level in the sagittal plane and were stained with hematoxylin and eosin (HE) and Safranin O-fast green to enable evaluation of proteoglycan content. A modified Mankin system (Mankin et al., 1981) was used to score structural and cellular alterations of articular components as indications of disease progression and/or treatment efficacy. The histological analysis was conducted by a certified Pathologist at Nationwide Histology.
# [4] = tested on: urine CTX-II (C-telopeptide of type II collagen); experiment: Urine CTX-II ELISA in MIA-induced OA model
# Procedure: Treatment started a week before MIA injection. […] On the induction day, isoflurane (Lot #[…] Enterprise Ltd. […], India) anesthetized rats were injected with 0.8 mg of MIA (Lot #A0352046, Acros Organics, New Jersey, USA) in 50 μL saline solution into the intra-articular pocket of left femorotibial (knee) joint using 26 G needle an hour after treatment. Normal control rats were injected with an equal volume of saline. […] Body weights were measured once a week to calculate the respective weekly dosage of each group. The merit of combining UP1306 and UP446 was then evaluated using the Colby's equation (Colby, 1967). Pain sensitivity percent inhibition values were used to determine the calculated efficacy values and compared to the observed percent inhibition values of the composition. CTX-II ELISA was performed according to the kit manufacturer's specifications. […] Rat urine samples were thawed on ice and diluted 1:3 with Sample Diluent. 100 μL of samples and standards were added to a 96-well plate pre-coated with CTX-II antibody. The plate was covered and incubated at 37° C. for 2 hours. The liquid was aspirated from each well, then 100 μL of Detection Reagent A working solution was added to each well. The plate was covered and incubated at 37° C. for 1 hour. The solution was aspirated from each well and the plate was washed three times with 1× Wash Buffer. 100 μL of Detection Reagent B working solution was added to each well, then the plate was covered and incubated at 37° C. for 1 hour. The solution was aspirated from each well and the plate was washed five times with 1× Wash Buffer. 90 μL of Substrate Solution was added to each well, then the plate was covered and incubated at 37° C. for 30 minutes. […] Stop Solution was added to each well, and the optical density at 450 nm was detected using a Tecan Genios plate reader. CTX-II concentrations for each sample were determined by multiplying by the dilution factor and fitting the value to the standard curve. To offset the variations in urine flow between rats, values were normalized to total urine protein.
# [5] = MIA 1 hour after sample treatment, daily 6 weeks, Diclofenac 10 mg/kg, GM 500 mg/kg, mean ± SD
# [6] = MIA 0.8 mg/joint, Diclofenac 10, UP1306 400, UP446 250, Composition 650 mg/kg
# [7] = MIA-induced OA rats, urine, week 5 of daily oral treatment
smiles,measurement,setting,value
O=C(O)Cc1ccccc1Nc1c(Cl)cccc1Cl [Diclofenac],BMD (mg/cm3),[1]; [5],982.3 ± 19.44 mg/cm3
same,BV/TV (%),[1]; [5],71.89 ± 5.43%
same,BMD compared with vehicle group,[1]; concurrent MIA model,significantly increased
same,BV/TV compared with vehicle group,[1]; concurrent MIA model,tendency to increase
same,"Percent change of vehicle, Pain sensitivity inhibition",[2]; Baseline,0.9%
same,Compression threshold (Mean ± SD),[2]; Baseline,244.1 ± 3.8
same,"Percent change of vehicle, Pain sensitivity inhibition",[2]; Week-1,40.4* %
same,Compression threshold (Mean ± SD),[2]; Week-1,190.8 ± 1.1
same,"Percent change of vehicle, Pain sensitivity inhibition",[2]; Week-2,28.8* %
same,Compression threshold (Mean ± SD),[2]; Week-2,171.8 ± 0.6
same,"Percent change of vehicle, Pain sensitivity inhibition",[2]; Week-3,31.2* %
same,Compression threshold (Mean ± SD),[2]; Week-3,170.1 ± 2.2
same,"Percent change of vehicle, Pain sensitivity inhibition",[2]; Week-4,30.8* %
same,Compression threshold (Mean ± SD),[2]; Week-4,171.6 ± 0.6
same,"Percent change of vehicle, Pain sensitivity inhibition",[2]; Week-5,31.0* %
same,Compression threshold (Mean ± SD),[2]; Week-5,170.9 ± 1.1
same,reduction in overall structural abnormality,"[3]; AM 400, UP446 250, AU 650, Diclofenac 10 mg/kg",51.4%
same,reduction in matrix GAG loss (Safranin O),"[3]; Diclofenac 10, AM 400, UP446 250, AU 650 mg/kg",46.0%
same,Bone at Articular surfaces (modified Mankin score 0-6),[3]; [6],0.70 ± 0.24
same,Fibrovascular proliferation (modified Mankin score 0-6),[3]; [6],1.55 ± 0.69
same,Inflammation/ Cellular infiltration (modified Mankin score 0-6),[3]; [6],0.55 ± 0.15
same,Matrix GAGs (modified Mankin score 0-6),[3]; [6],1.44 ± 0.38
same,Structural abnormality (modified Mankin score 0-6),[3]; [6],1.23 ± 0.36
same,"Ratio (CTX-II/Protein), uCTX-II normalized to total protein",[4]; [7],64.41
same,uCTX-II (Mean ± SD),[4]; [7],304 ± 233 ng/L
same,reduction in urine CTX-II,"[4]; after 5 weeks of daily oral treatment, diclofenac 10, UP1306+UP446 650, UP1306 400, UP446 250 mg/kg",31.33%
